Like-named read-outs stand apart in the source and are kept apart here.
Tests used:
[1] = target: T1, protein tyrosine phosphatase-1B (PTP-1B) (Homo sapiens, UniProt P18031); experiment: PTP-1B inhibitory activity, enzyme activity measured spectroscopically with pNPP substrate; type: biochemical
T1 construct: purchased Bioneer, Korea
T1 sequence (P18031 1-435): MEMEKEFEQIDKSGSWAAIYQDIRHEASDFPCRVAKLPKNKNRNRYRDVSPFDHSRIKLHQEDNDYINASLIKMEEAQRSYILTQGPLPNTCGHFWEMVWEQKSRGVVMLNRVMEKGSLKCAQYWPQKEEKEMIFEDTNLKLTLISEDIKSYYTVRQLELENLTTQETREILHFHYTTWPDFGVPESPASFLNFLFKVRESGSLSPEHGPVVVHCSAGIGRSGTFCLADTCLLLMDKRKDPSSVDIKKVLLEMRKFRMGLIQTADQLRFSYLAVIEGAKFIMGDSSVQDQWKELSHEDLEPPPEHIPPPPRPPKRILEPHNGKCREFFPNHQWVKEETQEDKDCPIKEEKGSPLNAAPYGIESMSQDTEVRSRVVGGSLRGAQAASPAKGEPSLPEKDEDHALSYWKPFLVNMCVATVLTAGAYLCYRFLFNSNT
Description: In order to analyze protein tyrosine phosphatase-1B (PTP-1B) inhibitory activity, enzyme activity was measured spectroscopically.
Specifically, to 0.5 μg/mL of PTP-1B (Bioneer, Korea), PTP-1B buffer (50 mM Bis-tris buffer, pH 6.5, 1 mM EDTA, 1 mM DTT), dimethyl lobamide (M11A7) (0, 0.4, 0.8, 1.6, 3.12, 6.25, 12.5, 25 nM) and the substrate pNPP (para Nitrophenyl phosphate, Sigma, USA) were added and reacted at room temperature for 30 minutes. Then, 10 N NaOH was added thereto, followed by reaction at room temperature for 5 minutes to terminate the reaction between PTP-1B, dimethyl lobamide and the substrate. Thereafter, the absorbance was measured at 405 nm.

[2] = tested on: db/db mice (type 2 diabetes model animal); experiment: Blood glucose after daily oral administration in diabetic disease model animals; type: in vivo; conditions: for antidiabetic effects by oral administration: diabetic disease model animals
Description: To more accurately measure antidiabetic effects of dimethyl lobamide, 200 μl of PBS as a control and 50 mg/kg of dimethyl lobamide compound as an experimental group were orally administered daily to 7-week-old male db/db mice (type 2 diabetes model animal, C57/BLKS/J-db/db, Korea Research Institute of Bioscience and Biotechnology). Thereafter, blood glucose was measured once a week. At this time, after oral administration, blood glucose was measured after fasting for 6 hours.

[3] = Body weight after oral administration in diabetic disease model animals; type: in vivo; conditions: db/db mice; for change in body weight compared to the control: oral administration
Description: To 7-week-old male db/db mice (type 2 diabetes model animal, C57/BLKS/J-db/db, Korea Research Institute of Bioscience and Biotechnology), 200 μl of PBS as a control and 50 mg/kg of dimethyl lobamide as an experimental group were orally administered daily. After administration, in order to investigate the change in body weight, the compound (dimethyl-lobamide) was orally administered twice a week at a fixed time, and then the body weight was measured using an animal scale.

[4] = target: T1, protein tyrosine phosphatase-1B (PTP-1B); conditions: comparison compounds; lobarstin from Korean Patent Registration No. 10-1481141; read-out: IC50 of PTP-1B inhibitory activity, comparison value; cited from earlier work

SMILES	PTP-1B inhibition rate ([1]; 0-25 nM)	IC50 ([1]; 0.5 μg/mL PTP-1B, pNPP, room temperature 30 minutes, absorbance 405 nm) [nM]	average blood glucose on day 0 ([2]; db/db mice, 50 mg/kg oral daily, after fasting 6 hours, day 0) [mg/dL]	average blood glucose on day 7 ([2]; db/db mice, 50 mg/kg oral daily, after fasting 6 hours, day 7) [mg/dL]	average blood glucose on day 14 ([2]; db/db mice, 50 mg/kg oral daily, after fasting 6 hours, day 14) [mg/dL]	increase in blood glucose versus control ([2]; db/db mice, 50 mg/kg oral, day 0 to 14)	antidiabetic effects by oral administration [2]	average body weight on day 0 ([3]; 50 mg/kg oral, day 0) [g]	average body weight on day 7 ([3]; 50 mg/kg oral, day 7) [g]	average body weight on day 14 ([3]; 50 mg/kg oral, day 14) [g]	change in body weight compared to the control [3]	change in body weight compared to the control ([3]; listed as dimethyl-lobamide)	IC50 [4] [nM]
CCCCCc1c(Oc2cc(OC)cc(C(=O)CCCC)c2C(=O)N(C)C)c(O)cc(O)c1C(=O)O [dimethyl lobamide]	increased in a concentration-dependent manner	2.16	193	194	268	lower increase in blood glucose than the control	could have the antidiabetic effects by oral administration	30.95	31.78	34.86	body weight reducing effects were demonstrated	no significant change in body weight	
CCC/C=C1/OC(=O)c2c(Oc3c(O)cc(O)c(C(=O)O)c3CCCCC)cc(OC)cc21 [lobarstin, reference compound]							no antidiabetic effects by oral administration						154

Source: patent US12319641B2, “Lobaric acid derivative having PTP-1B inhibitory activity, preparation method therefor and use thereof” (SNBIOSCIENCE INC., priority 2019, dated 2025)
